Test results as given in patent publication US11472814B2, “Thienopyranones and furanopyranones as checkpoint inhibitors and modulators of anti-tumor immunity” (SignalRx Pharmaceuticals, Inc., priority 2017, dated 2022).
Several values for one entry are separate records, joined by “and”; a condition that tells them apart may be missing. Equal values may be shown once. Entries after “also recorded” stand apart in the source; their conditions may differ.

Columns and labels:
CT26 tumors [1] = test: CT26 tumor growth in immunodeficient NSG mice; type: in vivo; conditions: 3 mg/kg
From the text: (§1) We investigated the effect of Compound 3 on immune cell in vitro and on tumor growth in in vivo in immunocompetent syngeneic tumor models and the effects on the macrophage and T cell immune compartment in vivo by this compound. […] In order to distinguish whether Compound 3 blocks tumor growth due to its effect on immune cell compartment and not on tumor compartment, we tested the effect of this chemotype on CT26 tumor growth in immunodeficient NSG mice vs immunocompetent Balb/c mice. […] Compound 3 has combinatorial immune-oncologic activity in vivo to stimulate anti-cancer innate and adaptive immunity in well-defined accepted immune competent murine models for cancer immunotherapy.
(§2) Conclusion: this establishes effect of Compound 3 as immune-oncologically active agent in cancer immunotherapy. In immunocompetent mice with same tumor cell ino kculum Compound 3 inhibited CT26 tumor growth by 58% decrease in tumor volume. (n=x, p<0.001, t test).

PI3K γ = target: T1, PI3K γ (Homo sapiens, UniProt P48736); test: PI3K gamma inhibition IC50 (Thermo Fisher); type: biochemical; conditions: 10-point curve
T1 construct: purchased Thermo Fisher Scientific-Biosciences Life Sciences Solutions, Madison, Wis; (contract assay service)
T1 sequence (P48736 whole entry): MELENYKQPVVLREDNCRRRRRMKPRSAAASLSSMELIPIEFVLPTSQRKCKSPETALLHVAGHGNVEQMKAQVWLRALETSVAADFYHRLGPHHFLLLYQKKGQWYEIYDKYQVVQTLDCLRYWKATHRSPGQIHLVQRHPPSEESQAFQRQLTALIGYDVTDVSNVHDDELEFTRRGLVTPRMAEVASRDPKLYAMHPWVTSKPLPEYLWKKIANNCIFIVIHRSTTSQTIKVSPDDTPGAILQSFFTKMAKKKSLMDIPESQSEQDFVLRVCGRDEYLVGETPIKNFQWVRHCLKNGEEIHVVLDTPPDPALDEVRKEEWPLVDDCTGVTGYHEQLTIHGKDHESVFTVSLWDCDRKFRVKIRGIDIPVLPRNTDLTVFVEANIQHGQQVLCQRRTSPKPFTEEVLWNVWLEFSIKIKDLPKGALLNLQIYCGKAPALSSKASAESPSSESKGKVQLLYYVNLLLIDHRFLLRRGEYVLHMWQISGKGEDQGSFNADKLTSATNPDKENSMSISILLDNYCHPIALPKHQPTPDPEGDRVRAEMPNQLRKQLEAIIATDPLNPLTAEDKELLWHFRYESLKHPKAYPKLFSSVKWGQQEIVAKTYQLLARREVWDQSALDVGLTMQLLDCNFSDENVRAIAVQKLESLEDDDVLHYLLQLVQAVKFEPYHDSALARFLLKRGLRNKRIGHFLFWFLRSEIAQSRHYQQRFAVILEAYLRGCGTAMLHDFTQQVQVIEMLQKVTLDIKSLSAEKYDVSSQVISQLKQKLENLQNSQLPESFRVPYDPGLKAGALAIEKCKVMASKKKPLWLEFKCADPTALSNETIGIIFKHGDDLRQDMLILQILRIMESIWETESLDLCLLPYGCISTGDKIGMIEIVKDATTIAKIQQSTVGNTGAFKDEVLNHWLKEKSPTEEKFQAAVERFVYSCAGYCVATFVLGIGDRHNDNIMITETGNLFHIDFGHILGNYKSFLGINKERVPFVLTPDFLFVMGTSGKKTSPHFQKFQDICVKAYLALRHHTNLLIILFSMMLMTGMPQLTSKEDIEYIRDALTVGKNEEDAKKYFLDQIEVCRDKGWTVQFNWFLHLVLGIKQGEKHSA
From the text: (§3) The inhibitory activity of a compound of the invention against PI3K and/or BRD4 and/or SYK and/or CDK4/6 can be readily determined using methods known to the skilled artisan, or by commercial vendors offering such services. […] In vivo, PI3K inhibition can be determined from target tissue biopsies by standard tissue processing to disrupt cells and then performing Western Blot analysis to determine the presence or absence of pAKT (substrate of PI3K) relative to a control sample. The activity of a compound of the invention as an inhibitor of a bromodomain-containing protein, such as a BET protein, such as BRD2, BRD3, BRD4, and/or BRDT, or an isoform or mutant thereof, may be determined in vitro, in vivo, or in a cell line. In vitro assays include assays that determine inhibition of bromodomain-containing proteins. Alternatively, inhibitor binding may be determined by running a competition experiment where a provided compound is incubated with a bromodomain-containing protein, such as a BET protein bound to known ligands, labeled or unlabeled. For example, bromodomain inhibition can be determined in vitro using Alpha Screen Technology (http://www.reactionbiologv.com/webapps/site/NewsPDFs/Bromodomain%20Assay %20Platform %20for %20Drug %20Screening %20and %20Discovery.pdf). In vivo bromodomain inhibition can be determined indirectly by evaluating the amount of protein present of proteins whose genes' transcription is influenced or controlled by the bromodomain protein, for example, the MYCN protein transcription is controlled by BRD4 (J. E. Delmore et al., Cell 2011, 146, 904-917; A. Puissant, Cancer Discov. 2013, 3, 308-323). Bromodomain inhibition may also be predicted by in silico modeling as described below in the Examples. Additionally, the company Promega offers a SYK luminescent assay to determine a compound's ability to inhibit the SYK protein (https://www.promega.com/-/media/files/resources/protocols/kinase-enzyme-appnotes/syk-kinase-assay-protocol.pdf?la=en).
(§4) Compounds of the invention were characterized for their ability to inhibit target proteins using third party vendors offering such services. PI3K alpha, gamma, and delta inhibition activity was determined by Thermo Fisher Scientific-Biosciences Life Sciences Solutions, Madison, Wis. The bromodomain protein inhibition (binding domain 1 and 2 of BRD4) as well as SYK inhibition was determined at Reaction Biology Corp., Malvern, Pa. […] The IC50 data (shown below in Table 5) was calculated from a 10-point curve and is expressed in nanomolar concentration (nM) rounded off to the nearest whole number. […]

BRD4-2 = target: T2, BRD4-2 (Homo sapiens, UniProt O60885); test: Bromodomain protein inhibition IC50, binding domain 2 of BRD4 (Reaction Biology Corp.); conditions: 10-point curve
T2 construct: purchased Reaction Biology Corp., Malvern, Pa; (contract assay service)
From the text: as §3, §4

CT26 tumors [2] = test: CT26 tumor growth in immunocompetent Balb/c mice; type: in vivo
From the text: as §1
Tumor volumes of CT26 inoculated subcutaneously in Balb/c mice treated with 3 mg/Kg Compound 3, or 200 ug anti-PDL1 or both. Conclusion: Compound 3 has greater antitumor immune activating activity as compared to anti-PDL1 monoclonal antibody treatment in this in vivo immune-oncology model. Compound 3 suppressed tumor growth by 88% in this model (n=6, p<0.001, t test) as compared to vehicle control treated mice.
as §2
In contrast to above data, Compound 3 has a marked significant inhibitory effect on CT26, LLC and MC38 tumor growth in immunocompetent murine models. Conclusion: this establishes effect of Compound 3 as immune-oncologically active agent in cancer immunotherapy. In immunocompetent mice with same tumor cell inoculum Compound 3 inhibited tumor growth by from 58-68%. p<0.001 in all experiments compared to vehicle control.

CT26 tumor cells = test: In vitro viability of CT26 tumor cells; type: cell-based; conditions: for % Cell Viability: CT26 tumor cells in vitro
From the text: as §1
Compound 3 has no effect on the in vitro viability of CT26 tumor cells.

[3] = LLC tumor growth in immunocompetent WT mice; type: in vivo; conditions: CT26, LLC and MC38 in immunocompetent mice
From the text: as §1
Compound 3: a novel dual Syk/PI3K inhibitory chemotype: Combinatorial inhibition of Syk and PI3K increases anti-tumor innate and adaptive T cell immune response in vivo. Tumor volume of LLC inoculated subcutaneously in WT mice treated with 10 mg/Kg Compound 3 (n=9, ***p<0.0001, t test). Conclusion: Compound 3 suppressed tumor growth of LLC by 68% in this immunocompetent immune-oncology model system as compared to vehicle control treated mice.
In contrast to above data, Compound 3 has a marked significant inhibitory effect on CT26, LLC and MC38 tumor growth in immunocompetent murine models. Conclusion: this establishes effect of Compound 3 as immune-oncologically active agent in cancer immunotherapy. […]

BRD4-1 = target: T3, BRD4-1 (Homo sapiens, UniProt O60885); test: Bromodomain protein inhibition IC50, binding domain 1 of BRD4 (Reaction Biology Corp.); conditions: 10-point curve
T3 construct: purchased Reaction Biology Corp., Malvern, Pa; (contract assay service)
From the text: as §3, §4

T cells in LLC tumors = test: Quantification of CD3+, CD4+ and CD8+ T cells in LLC tumors; type: in vivo, mice
From the text: Quantification of CD3+, CD4+ and CD8+ T cells in the LLC tumors treated with Compound 3 (n=3, *p<0.05, t test). Conclusion: Compound 3 decreased CD4+ cells by 50% and increased CD8+ T cells in the tumor compartment by 7% in vivo as compared to vehicle control treated mice.

With `Cc1nn(-c2ccnc(Nc3ccc(-c4csc5c(=O)cc(N6CCOCC6)oc45)cc3)n2)cc1CN1CCC1` [Compound 3, 3-[p-(4-{4-[(1-Azetidinyl)methyl]-3-methyl-1H-pyrazol-1-yl}-2-pyrimidinylamino)phenyl]-5-morpholino-4-oxa-1-thia-7-indenone] the “% Growth inhibition” value (CT26 tumors [1]; CT26 tumors in immunodeficient NSG mice, negative = increase in tumor growth) was −33 ± 27%, the “CT26 tumor growth in NSG mice” value (CT26 tumors [1]; immunodeficient NSG mice) was “did not reduce CT26 tumor growth; also recorded: no significant effect” and the IC50 (PI3K γ) was 5 to 50 µM. For the same compound, the IC50 (BRD4-2) was 1 to 5 µM, the “CT26 tumor growth suppression” value (CT26 tumors [2]; Balb/c mice, 3 mg/Kg, n=6, vs vehicle) was 88% and the “% Growth inhibition compared to control” value (CT26 tumors [2]; CT26 subcutaneous in Balb/c mice, 3 mg/Kg Compound 3, 200 ug anti-PDL1 or both, n=6) was 88 ± 10%. For the same compound, the “% Growth inhibition of CT26 tumor” value (CT26 tumors [2]; immunocompetent Balb/c mice, vs vehicle) was 58% and 58 +/− 10%, the “CT26 tumor growth, combination” value (CT26 tumors [2]; in combination with anti-PDL1 antibody) was “decrease in tumor growth” and the “in vitro viability of CT26 tumor cells” value (CT26 tumor cells) was “didn't show any effect; also recorded: no effect”. The “% Cell Viability” value (CT26 tumor cells; Log Inhibitor conc. 1.68867) was 96.5 ± 5.3%, the “% Cell Viability” value (CT26 tumor cells; Log Inhibitor conc. 1.9897) was 96 ± 8.0% and the “% Cell Viability” value (CT26 tumor cells; Log Inhibitor conc. 2.29073) was 91.6 ± 8.9%. For the same compound, the “% Cell Viability” value (CT26 tumor cells; Log Inhibitor conc. 2.59176) was 91.3 ± 5.13%, the “% Cell Viability” value (CT26 tumor cells; Log Inhibitor conc. 2.89279) was 89.8 ± 6.7% and the “% Cell Viability” value (CT26 tumor cells; Log Inhibitor conc. 3.19382) was 87.3 ± 4.1%. The “% Cell Viability” value (CT26 tumor cells; Log Inhibitor conc. 3.49485) was 87.1 ± 9.6%, the “% Cell Viability” value (CT26 tumor cells; Log Inhibitor conc. 3.79588) was 84.3 ± 4.3% and the “% Cell Viability” value (CT26 tumor cells; Log Inhibitor conc. 4.09691) was 83.9 ± 6.27%. For the same compound, the “% Cell Viability” value (CT26 tumor cells; Log Inhibitor conc. 4.39794) was 83.6 ± 5.1%, the “% Cell Viability” value (CT26 tumor cells; Log Inhibitor conc. 4.69897) was 77.4 ± 5.0% and the “tumor growth inhibition across models” value [3] was 58-68%. The IC50 (BRD4-1) was 1 to 5 µM, the “CD4+ T cells (% of CD3+ T cells)” value (T cells in LLC tumors; LLC tumor) was 23 ± 7, % of CD3+ T cells and the “CD8+ T cells (% of CD3+ T cells)” value (T cells in LLC tumors; LLC tumor) was 34 ± 1.1, % of CD3+ T cells. The “decrease of CD4+ cells” value (T cells in LLC tumors; LLC tumor, vs vehicle) was 50% and the “increase of CD8+ T cells in the tumor compartment” value (T cells in LLC tumors; vs vehicle) was 7%.
